Consider ten compounds from ChEMBL document CHEMBL1201862, “PubChem BioAssay data set” (2004).

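All cell lines were grown in 96-well plates and treated with compound for 48 hours. The concentration for 50% growth inhibition is given as GI50.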 Active and inactive are the calls of the source. Rule as the data show it: active = GI50 up to about 1.1 µM and inactive = higher. Some results are limits rather than exact numbers.

What all share (experiment): NCI tumour cell line growth inhibition, 48 h
For test [1], the system named is CCRF-CEM.
Test [2] relates to COLO 205.
For test [3], the system named is EKVX.
The test system of test [4] is HCC 2998.
Test [5] relates to HOP-62.
For test [6], the system named is HT-29.
The test system of test [7] is M14.
Test [8] relates to MOLT-4.
In test [9] the test system is Malme-3M.
Test [10] deals with NCI-H460.
Test [11] has as its system OVCAR-4.
The subject of test [12] is OVCAR-5.
Test [13] deals with OVCAR-8.
The test system of test [14] is RPMI-8226.
Test [15] concerns SK-MEL-2.
In test [16] the test system is SR.
The subject of test [17] is SW-620.
For test [18], the system named is T47D.
Test [19] has as its system U-251.
Test [20] relates to UO-31.

As to `COc1cccc(-c2cc(O)c3cc(OC)ccc3n2)c1`, the GI50 in [1] was 0.195 µM (active); in test [2], 0.201 µM (active); in test [3], 0.92 µM (active); in test [4], 0.291 µM (active); in [5], 0.446 µM (active); in test [6], 0.33 µM (active). Besides, the GI50 in [7] was 0.235 µM (active); in test [8] it was 0.311 µM (active); in [9], 0.0553 µM (active); in [10] it was 0.365 µM (active); in test [11], 1.71 µM (inactive); in test [12], 0.452 µM (active). The GI50 was 0.344 µM (active) in [13]; 0.34 µM (active) in test [14]; 0.321 µM (active) in [15]; 0.0815 µM (active) in test [16]; 0.281 µM (active) in [17]; > 10 µM (inactive) in test [18]. The results for the GI50 in test [19] and in [20] were 0.305 µM (active) and 0.426 µM (active), respectively.

As to `Cc1c(CCCl)c(Cl)n2c(nc3ccccc32)c1C#N`, the GI50 in test [1] is 0.045 µM (active); in test [2], 0.991 µM (active); in test [3], 3.21 µM (inactive); in test [4], 1.56 µM (inactive); in test [5] it was 2 µM (inactive); in [6] it was 1.42 µM (inactive). Also, the GI50 was 1.14 µM (inactive) in test [7]; 0.172 µM (active) in test [8]; 1.26 µM (inactive) in test [9]; 0.456 µM (active) in test [10]; 1.44 µM (inactive) in test [11]; 1.63 µM (inactive) in test [12]. In addition, the GI50 is 1.25 µM (inactive) in test [13]; 0.092 µM (active) in test [14]; 1.06 µM (active) in test [15]; 0.112 µM (active) in test [16]; 0.161 µM (active) in test [17]; 1.38 µM (inactive) in [18]. Besides, the GI50 was 0.986 µM (active) in [19] and 1.28 µM (inactive) in test [20].

On to `Cc1ccc2c(c1)-c1c(C#N)c(N)nc(-c3ccccc3)c1CCS2(=O)=O`, for which the GI50 in [1] is 1.23 µM (inactive); in test [2], 6.03 µM (inactive); in [3], 18.7 µM (inactive); in test [4], 8.13 µM (inactive); in test [5], 6.95 µM (inactive); in test [6], 3.78 µM (inactive). The GI50 in [7] was 4.54 µM (inactive); in test [8], 7.53 µM (inactive); in test [9], 2.45 µM (inactive); in [10], 4.17 µM (inactive); in test [11], 52 µM (inactive); in test [12], 10.1 µM (inactive). For the same compound, the GI50 in test [13] is 11.7 µM (inactive); in test [14], 4.56 µM (inactive); in test [15], > 29.2 µM (inactive); in test [16] it was 0.834 µM (active); in test [17], 5.6 µM (inactive); in [18], 15.1 µM (inactive). For the same compound, the values for the GI50 in test [19] and in [20] were 8.22 µM (inactive) and 13.4 µM (inactive), respectively.

Consider `O=c1[nH]nc(-c2ccccc2)n1-n1cnnc1`, for which the GI50 in test [1], in test [2], in test [3], in [4], in test [5] and in test [6] was > 100 µM (inactive) throughout. The GI50 in [7], in test [8], in test [9], in test [10], in [11] and in test [12] was > 100 µM (inactive) in each case. The GI50 in test [13], in [14], in test [15], in test [16], in [17] and in test [18] was > 100 µM (inactive) in each case. For the same compound, the GI50 in test [19] and in test [20] was > 100 µM (inactive) in each case.

Regarding `COC(=N)C1(C#N)NC(c2ccsc2)C(C#N)(C#N)NC1c1ccsc1` (stereo not given), the GI50 in test [1], in test [2], in test [3], in test [4], in [5] and in test [6] was > 100 µM (inactive) in each case. Also, the GI50 in [7], in test [8], in test [9], in test [10], in test [11] and in [12] was > 100 µM (inactive) throughout. Besides, the GI50 in test [13] was > 100 µM (inactive); in test [14], > 100 µM (inactive); in [15] it was > 100 µM (inactive); in [16], > 100 µM (inactive); in test [17], > 100 µM (inactive); in test [18] it was 80.2 µM (inactive). In addition, the GI50 in test [19] and in [20] was > 100 µM (inactive) throughout.

In the case of `COc1ccc(N2C(=O)[C@H]3[C@H]4CC(C(C)(C)C)CC[C@H]4c4c(n(C)c5ccccc45)[C@H]3C2=O)cc1` (stereo not given in full), the GI50 was > 100 µM (inactive) in test [1]; > 100 µM (inactive) in test [2]; > 46.5 µM (inactive) in test [3]; 5.62 µM (inactive) in test [4]; > 5.62 µM (inactive) in [5]; > 100 µM (inactive) in test [6]. The GI50 in test [7] was > 100 µM (inactive); in [8], > 100 µM (inactive); in [9], > 100 µM (inactive); in test [10] it was > 10 µM (inactive); in [11] it was > 79.6 µM (inactive); in test [12], > 10 µM (inactive). The GI50 is > 100 µM (inactive) in test [13]; > 100 µM (inactive) in test [14]; > 4.65 µM (inactive) in test [15]; > 100 µM (inactive) in [16]; > 100 µM (inactive) in [17]; > 100 µM (inactive) in [18]. The results for the GI50 in test [19] and in [20] were > 56.2 µM (inactive) and > 100 µM (inactive), respectively.

Regarding `CCOC(=O)[C@@H]1CCN2CN(c3ccc(OC)cc3)N=C(c3ccccc3)[C@@]12c1ccccc1`, the GI50 was 23.7 µM (inactive) in [1]; 21.4 µM (inactive) in [2]; 29.4 µM (inactive) in [3]; 26.2 µM (inactive) in test [4]; 27.7 µM (inactive) in test [5]; 17.1 µM (inactive) in [6]. Also, the GI50 in test [7] is 20 µM (inactive); in test [8], 26.1 µM (inactive); in test [9], 16.6 µM (inactive); in test [10], 27.8 µM (inactive); in test [11], 44 µM (inactive); in [12], 32.2 µM (inactive). The GI50 in [13] is 22.7 µM (inactive); in test [14] it was 14.1 µM (inactive); in [15] it was 18.1 µM (inactive); in test [16], 23.7 µM (inactive); in [17], 32.1 µM (inactive); in [18], 19.1 µM (inactive). The GI50 in [19] was 28.9 µM (inactive); in test [20] it was 17.8 µM (inactive).

As to `Cc1cc(O)c(C(C)C)cc1/N=C/c1ccccc1O`, the GI50 is 0.0242 µM (active) in [1]; 25.5 µM (inactive) in [2]; 7.87 µM (inactive) in [3]; 7.29 µM (inactive) in test [4]; 11.7 µM (inactive) in test [5]; 24.2 µM (inactive) in test [6]. The GI50 in [7] is 15.4 µM (inactive); in test [8], 0.301 µM (active); in [9] it was 14.7 µM (inactive); in test [10], 5.3 µM (inactive); in [11], 2.41 µM (inactive); in test [12] it was 20.6 µM (inactive). Further, the GI50 in test [13] was 1.8 µM (inactive); in test [14] it was 0.278 µM (active); in test [15], 11 µM (inactive); in test [16], 1.15 µM (inactive); in test [17], 1.98 µM (inactive); in test [18] it was 0.36 µM (active). Also, the GI50 in [19] is 3.55 µM (inactive); in test [20], 13.2 µM (inactive).

On to `Cc1cc2c3ccccc3n(C)c2c2c1C(=O)C=CC2=O`, for which the GI50 in test [1] is 2.42 µM (inactive); in [2] it was 17.9 µM (inactive); in [3], 12 µM (inactive); in test [4], 20.2 µM (inactive); in test [5] it was 22.4 µM (inactive); in [6], 9.62 µM (inactive). The GI50 is 17.8 µM (inactive) in test [7]; 6.76 µM (inactive) in test [8]; 20 µM (inactive) in [9]; 17.1 µM (inactive) in test [10]; 7.29 µM (inactive) in [11]; 21.1 µM (inactive) in test [12]. For the same compound, the GI50 was 24.8 µM (inactive) in test [13]; 1.58 µM (inactive) in test [14]; 18.1 µM (inactive) in test [15]; 4.68 µM (inactive) in [16]; 10.7 µM (inactive) in test [17]; 3.39 µM (inactive) in [18]. The GI50 is 17.3 µM (inactive) in test [19] and 21.8 µM (inactive) in test [20].

As to `O=C1c2ccccc2CC12Cc1ccc3c(c1C2)CCC3` (stereo not given), the GI50 in test [1] is 16.8 µM (inactive); in test [2], 19 µM (inactive); in test [3], 16.9 µM (inactive); in test [4] it was 24.3 µM (inactive); in test [5], 23.3 µM (inactive); in test [6] it was 13.3 µM (inactive). In addition, the GI50 was 19.1 µM (inactive) in test [7]; 23.8 µM (inactive) in test [8]; 13.6 µM (inactive) in [9]; 23.7 µM (inactive) in test [10]; 22.2 µM (inactive) in test [11]; 17.2 µM (inactive) in test [12]. The GI50 in test [13] was 28.8 µM (inactive); in test [14], 19 µM (inactive); in [15] it was 15.9 µM (inactive); in test [16], 14 µM (inactive); in test [17] it was 30.5 µM (inactive); in [18], 19.1 µM (inactive). Besides, the GI50 in [19] was 16.9 µM (inactive); in [20], 23.4 µM (inactive).
